In PubChem BioAssay AID256 (DTP/NCI, 2004) one finds T/C data, which are given here for 18 compounds.

The test system of the assay is CD2F1 mice, L1210 leukemia ip, survival T/C. Description: NCI In Vivo Anticancer Drug Screen. Data for tumor model L1210 Leukemia (intraperitoneal) in CD2F1 (CDF1) mice. The note with it: higher = longer survival. In outline:
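Each value reflects a quotient of treated over vehicle control outcomes in mice with a transplanted tumor.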

The mark [1] stands for this setting: endpoint: mean survival time, dose: 100.0 mg/kg/injection, schedule: Q04DX003 (ip), vehicle: saline with Tween-80.
The mark [2] stands for this setting: endpoint: mean survival time, dose: 200.0 mg/kg/injection, schedule: Q04DX003 (ip), vehicle: saline with Tween-80.
Where [3] appears, read: endpoint: mean survival time, dose: 400.0 mg/kg/injection, schedule: Q04DX003 (ip), vehicle: saline with Tween-80.
Where [4] appears, read: endpoint: mean survival time, dose: 100.0 mg/kg/injection, schedule: Q01DX001 (ip), vehicle: saline with Tween-80.
The mark [5] stands for this setting: endpoint: mean survival time, dose: 200.0 mg/kg/injection, schedule: Q01DX001 (ip), vehicle: saline with Tween-80.

Where “and” joins values, the source holds several entries; their conditions need not be identical. Equal entries are not always repeated. Toxic doses and inconclusive results are not listed.

Consider `CCCCOC(=O)c1cc([N+](=O)[O-])c(Sc2ncnc3nc[nH]c23)c([N+](=O)[O-])c1`, for which the T/C (endpoint: mean survival time, dose: 0.63 mg/kg/injection, schedule: Q01DX005 (ip), vehicle: other) was 106 % of control; the T/C (endpoint: mean survival time, dose: 1.25 mg/kg/injection, schedule: Q01DX005 (ip), vehicle: other) is 104 % of control; the T/C (endpoint: mean survival time, dose: 2.5 mg/kg/injection, schedule: Q01DX005 (ip), vehicle: other) is 106 % of control; the T/C (endpoint: mean survival time, dose: 5.0 mg/kg/injection, schedule: Q01DX005 (ip), vehicle: other) was 106 % of control; the T/C (endpoint: mean survival time, dose: 10.0 mg/kg/injection, schedule: Q01DX005 (ip), vehicle: other) was 114 % of control; the T/C (endpoint: mean survival time, dose: 15.0 mg/kg/injection, schedule: Q01DX005 (ip), vehicle: other) was 120 % of control.
As for `CCCCCCCCCCCCCCCCOc1ccc(S(=O)(=O)NC(C)(C)C)cc1N`, the T/C is, setting by setting: under setting [1], 96 % of control; under setting [2], 93 % of control; under setting [3], 95 % of control.
On the same counts, the results for `OC(Cc1cc(CC(O)(C(F)(F)F)C(F)(F)F)ncn1)(C(F)(F)F)C(F)(F)F` are 97 % of control, 93 % of control and 91 % of control.
As for `CC(O)(P(=O)(O)O)P(=O)(O)O.[NH-]CC[NH-].[NH-]CC[NH-].[Pd+2].[Pd+2]`, the T/C by setting is: (endpoint: mean survival time, dose: 3.13 mg/kg/injection, schedule: Q04DX003 (ip), vehicle: water) 106 % of control; (endpoint: mean survival time, dose: 6.25 mg/kg/injection, schedule: Q04DX003 (ip), vehicle: water) 103 % of control; (endpoint: mean survival time, dose: 12.5 mg/kg/injection, schedule: Q04DX003 (ip), vehicle: water) 87 % of control; (endpoint: mean survival time, dose: 25.0 mg/kg/injection, schedule: Q04DX003 (ip), vehicle: water) 103 % of control; (endpoint: mean survival time, dose: 50.0 mg/kg/injection, schedule: Q04DX003 (ip), vehicle: water) 93 % of control; (endpoint: mean survival time, dose: 100.0 mg/kg/injection, schedule: Q04DX003 (ip), vehicle: water) 102 % of control.
In the case of `c1cc2c3c(c1)-c1nc4ccccc4cc1CN3CCC2`, the T/C reads like this: under setting [1], 98 % of control; under setting [2], 101 % of control; under setting [3], 97 % of control.
As to `O=[N+]([O-])c1ccc(Sc2ccc(Br)cc2)cc1`, the T/C is 97 % of control under setting [4]; 106 % of control under setting [5]; 104 % of control (endpoint: mean survival time, dose: 400.0 mg/kg/injection, schedule: Q01DX001 (ip), vehicle: saline with Tween-80).
For the compound `N#C/C(=C/c1ccccc1Cl)C(N)=O`, the T/C was 103 % of control (endpoint: mean survival time, dose: 100.0 mg/kg/injection, schedule: Q01DX001 (ip), vehicle: saline sonified); 100 % of control (endpoint: mean survival time, dose: 200.0 mg/kg/injection, schedule: Q01DX001 (ip), vehicle: saline sonified); 104 % of control (endpoint: mean survival time, dose: 400.0 mg/kg/injection, schedule: Q01DX001 (ip), vehicle: saline sonified).
In the case of `COc1ccc(CCNC2CCCCC2O)cc1OC` (stereo not drawn), the T/C is, setting by setting: (endpoint: mean survival time, dose: 75.0 mg/kg/injection, schedule: Q01DX001 (ip), vehicle: saline) 106 % of control; (endpoint: mean survival time, dose: 150.0 mg/kg/injection, schedule: Q01DX001 (ip), vehicle: saline) 98 % of control; (endpoint: mean survival time, dose: 300.0 mg/kg/injection, schedule: Q01DX001 (ip), vehicle: saline) 104 % of control.
For `COC(CCCl)c1ccc(Cl)cc1` (stereo not drawn), the T/C is, setting by setting: (endpoint: mean survival time, dose: 50.0 mg/kg/injection, schedule: Q01DX009 (ip), vehicle: saline) 96 % of control; (endpoint: mean survival time, dose: 100.0 mg/kg/injection, schedule: Q01DX009 (ip), vehicle: saline) 96 % of control; under setting [1], 96 % of control; (endpoint: mean survival time, dose: 200.0 mg/kg/injection, schedule: Q01DX009 (ip), vehicle: saline) 98 % of control; under setting [2], 87 % of control.
Regarding `CNC(=S)NNc1ccc(Cl)cc1`, the T/C (endpoint: mean survival time, dose: 12.5 mg/kg/injection, schedule: Q01DX009 (ip), vehicle: other) is 96 % of control; the T/C (endpoint: mean survival time, dose: 25.0 mg/kg/injection, schedule: Q01DX009 (ip), vehicle: other) was 94 % of control; the T/C (endpoint: mean survival time, dose: 50.0 mg/kg/injection, schedule: Q01DX009 (ip), vehicle: other) was 93 % of control; the T/C (endpoint: mean survival time, dose: 100.0 mg/kg/injection, schedule: Q01DX009 (ip), vehicle: other) is 104 % of control.
As to `Cc1ccc2nc(-c3ccc(N=Cc4ccccc4O)cc3)sc2c1`, the T/C reads like this: (endpoint: mean survival time, dose: 12.5 mg/kg/injection, schedule: Q01DX009 (ip), vehicle: olive oil, sesame oil, peanut oil) 100 % of control; (endpoint: mean survival time, dose: 25.0 mg/kg/injection, schedule: Q01DX009 (ip), vehicle: olive oil, sesame oil, peanut oil) 98 % of control; (endpoint: mean survival time, dose: 50.0 mg/kg/injection, schedule: Q01DX009 (ip), vehicle: olive oil, sesame oil, peanut oil) 102 % of control; (endpoint: mean survival time, dose: 100.0 mg/kg/injection, schedule: Q01DX009 (ip), vehicle: olive oil, sesame oil, peanut oil) 95 % of control; (endpoint: mean survival time, dose: 200.0 mg/kg/injection, schedule: Q01DX009 (ip), vehicle: olive oil, sesame oil, peanut oil) 100 % of control; (endpoint: mean survival time, dose: 400.0 mg/kg/injection, schedule: Q01DX009 (ip), vehicle: olive oil, sesame oil, peanut oil) 96 % of control.
For the compound `COc1ccc2[nH]c3ccc4cc[n+](CCN5CCC(C6CCN(CC[n+]7ccc8ccc9[nH]c%10ccc(OC)cc%10c9c8c7)CC6)CC5)cc4c3c2c1`, the T/C runs as follows: (endpoint: median survival time, dose: 8.0 mg/kg/injection, schedule: Q01DX009 (ip), vehicle: water) 172 % of control and 246 % of control; (endpoint: median survival time, dose: 16.0 mg/kg/injection, schedule: Q01DX009 (ip), vehicle: water) 160 % of control and 185 % of control; (endpoint: median survival time, dose: 16.25 mg/kg/injection, schedule: Q01DX009 (ip), vehicle: water) 172 % of control; (endpoint: median survival time, dose: 32.0 mg/kg/injection, schedule: Q01DX009 (ip), vehicle: water) 119 % of control; (endpoint: median survival time, dose: 32.5 mg/kg/injection, schedule: Q01DX009 (ip), vehicle: water) 197 % of control; (endpoint: median survival time, dose: 200.0 mg/kg/injection, schedule: Q01DX009 (ip), vehicle: Klucel (hydroxypropylcellulose) (HPC)) 91 % of control and 102 % of control.
Consider `OCC1OC(n2cnc3c(=S)nc(NO)[nH]c32)C(O)C1O` (stereo not drawn), for which the T/C runs as follows: (endpoint: mean survival time, dose: 6.25 mg/kg/injection, schedule: Q01DX005 (ip), vehicle: saline with Tween-80) 196 % of control and 237 % of control; (endpoint: mean survival time, dose: 12.5 mg/kg/injection, schedule: Q01DX005 (ip), vehicle: saline with Tween-80) 164 % of control and 263 % of control; (endpoint: mean survival time, dose: 25.0 mg/kg/injection, schedule: Q01DX005 (ip), vehicle: saline with Tween-80) 102 % of control; (endpoint: mean survival time, dose: 50.0 mg/kg/injection, schedule: Q01DX005 (ip), vehicle: saline with Tween-80) 89 % of control.
As to `O=C([O][Sb]([O]C(=O)C(Cl)Cl)([c]1ccccc1)([c]1ccccc1)[c]1ccccc1)C(Cl)Cl`, the T/C under setting [1] is 92 % of control and the T/C under setting [2] was 88 % of control.
For `Nc1c(Cl)c(Cl)cc(Cl)c1Cl`, the T/C was 97 % of control under setting [1], 102 % of control under setting [2] and 92 % of control under setting [3].
Take `Cc1cccc(C)c1NC(=O)/C=C/c1ccccc1`: the T/C is 94 % of control (endpoint: mean survival time, dose: 100.0 mg/kg/injection, schedule: Q04DX002 (ip), vehicle: saline with Tween-80); 90 % of control (endpoint: mean survival time, dose: 200.0 mg/kg/injection, schedule: Q04DX002 (ip), vehicle: saline with Tween-80); 98 % of control (endpoint: mean survival time, dose: 400.0 mg/kg/injection, schedule: Q04DX002 (ip), vehicle: saline with Tween-80).
For `COc1cc(/C=C\[N+](=O)[O-])c([N+](=O)[O-])cc1OCc1ccccc1`, the T/C by setting is: under setting [4], 94 % of control; under setting [5], 97 % of control.
For the compound `O=C(O)/C=C(/Cl)c1ccccc1`, the T/C (endpoint: mean survival time, dose: 100.0 mg/kg/injection, schedule: Q01DX009 (ip), vehicle: saline with Tween-80) is 101 % of control; the T/C (endpoint: mean survival time, dose: 200.0 mg/kg/injection, schedule: Q01DX009 (ip), vehicle: saline with Tween-80) is 91 % of control; the T/C (endpoint: mean survival time, dose: 400.0 mg/kg/injection, schedule: Q01DX009 (ip), vehicle: saline with Tween-80) is 89 % of control.
